Assay results reported in PMC5640650, “NatD promotes lung cancer progression by preventing histone H4 serine phosphorylation to activate Slug expression” (Nature Communications, 2017).

Columns and labels:
Format in all cases: cell-based, human
H1299 cells [1] = experiment: Transwell migration and invasion assay, H1299 cells; settings: 12 h, knockdown vs Scr
Description: Fig. 2 NatD is required for lung cancer cell migration and invasion in vitro. a Quantitative real-time PCR analysis of NatD mRNA levels normalized to GAPDH in scrambled control cells (Scr) and NatD-KD1 and NatD-KD2 cells. Results are shown as mean ± s.d. from three independent experiments. Two-tailed Student’s t-test was used. **P < 0.01 compared to Scr control. b Western blot analysis of NatD and Nt-ac-H4 protein levels in scrambled, NatD-KD1, and NatD-KD2 cells. GAPDH and histone H4 served as loading controls. […] Wound healing assay results are quantified in the histogram (right panel). […] Cell migration and invasion are expressed as a percentage of control (bottom panel). […]
Fig. 5 Regulation of Slug by NatD is acetyltransferase activity-dependent. a (left) In vitro acetylation assay showing the catalytic activity of NatDΔ and wild-type NatD (CPM, counts per minute). […] (bottom) Histones shown by Coomassie blue staining. d Quantitative real-time PCR analysis of mRNA levels of Slug, E-cadherin, N-cadherin, and Vimentin normalized to GAPDH in H1299 cells overexpressing NatDΔ or wild-type NatD. […] Cell migration and invasion are expressed as a percentage of control (bottom panel). […]
The in vitro viability of H1299 cells was assessed using the Cell Counting Kit-8 (CCK-8, Dojindo, Japan) according to the manufacturer’s protocol. […]

histone H4 = experiment: Western blot of histone H4 modifications, H1299 cells; settings: total lysates, vs Scr
Description: Fig. 2 NatD is required for lung cancer cell migration and invasion in vitro. a Quantitative real-time PCR analysis of NatD mRNA levels normalized to GAPDH in scrambled control cells (Scr) and NatD-KD1 and NatD-KD2 cells. Results are shown as mean ± s.d. from three independent experiments. Two-tailed Student’s t-test was used. **P < 0.01 compared to Scr control. b Western blot analysis of NatD and Nt-ac-H4 protein levels in scrambled, NatD-KD1, and NatD-KD2 cells. GAPDH and histone H4 served as loading controls. Blots are representative of three independent experiments. c Representative images from wound healing assay of scrambled, NatD-KD1, and NatD-KD2 cells from three independent experiments (left panels). Wound healing assay results are quantified in the histogram (right panel). Results are shown as mean ± s.d. from three independent experiments. Two-tailed Student’s t-test was used. **P < 0.01 compared to Scr control. d Representative images of the migration of scrambled, NatD-KD1, and NatD-KD2 cells in a time-lapse cell tracker migration assay from three independent experiments. Representative images of the migration (e) and invasion (f) of scramble, NatD-KD1, and NatD-KD2 cells with transwell assay from three independent experiments (top panel). Cell counts for the corresponding assays of at least four random microscope fields (×100 magnification). Cell migration and invasion are expressed as a percentage of control (bottom panel). Results are shown as mean ± s.d. from three independent experiments. Two-tailed Student’s t-test was used. **P < 0.01 compared to Scr control
Fig. 6 Nt-acetylation of histone H4 antagonizes phosphorylation of histone H4 serine 1 to regulate Slug expression. a Western blot analysis of indicated histone H4 modifications in Scr and NatD-KD H1299 cells. Histone H4 served as a loading control. b ChIP analysis of the enrichment of indicated histone H4 modifications on the Slug promoter in Scr and NatD-KD H1299 cells. IgG served as a negative control. Results are shown as mean ± s.d. from three independent experiments; two-tailed Student’s t-test, *P < 0.05, **P < 0.01 compared with the Scr control. c ChIP analysis of the enrichment of H3K4me3 and H3K27me3 on the Slug promoter in Scr and NatD-KD H1299 cells. IgG served as a negative control. Results are shown as mean ± s.d. from three independent experiments; two-tailed Student’s t-test, **P < 0.01 compared with the Scr control. d Western blot analysis of indicated proteins from H1299 cells overexpressing NatDΔ or wild-type NatD. Histone H4 served as a loading control. e ChIP analysis of the enrichment of Nt-ac-H4 and H4S1ph on Slug promoter in H1299 cells overexpressing NatDΔ or wild-type NatD. IgG served as a negative control. Results are shown as mean ± s.d. from three independent experiments; two-tailed Student’s t-test, *P < 0.05, **P < 0.01 compared with the wild-type control
Cellular proteins were extracted by RIPA lysis buffer at high salt concentration (420 mM NaCl), and western blot analysis was performed in accordance with standard protocols. Scans of enhanced chemiluminescence (ECL) films showing uncropped blots are presented in Supplementary Fig. 10. […]

H1299 cells [2] = experiment: Wound healing assay, H1299 cells; settings: vs Scr
Description: (§1) Fig. 2 NatD is required for lung cancer cell migration and invasion in vitro. a Quantitative real-time PCR analysis of NatD mRNA levels normalized to GAPDH in scrambled control cells (Scr) and NatD-KD1 and NatD-KD2 cells. Results are shown as mean ± s.d. from three independent experiments. Two-tailed Student’s t-test was used. **P < 0.01 compared to Scr control. b Western blot analysis of NatD and Nt-ac-H4 protein levels in scrambled, NatD-KD1, and NatD-KD2 cells. GAPDH and histone H4 served as loading controls. Blots are representative of three independent experiments. c Representative images from wound healing assay of scrambled, NatD-KD1, and NatD-KD2 cells from three independent experiments (left panels). Wound healing assay results are quantified in the histogram (right panel). […] Cell migration and invasion are expressed as a percentage of control (bottom panel). […]
(§2) The in vitro viability of H1299 cells was assessed using the Cell Counting Kit-8 (CCK-8, Dojindo, Japan) according to the manufacturer’s protocol. Flow cytometric analysis of apoptosis was assessed by Annexin V and PI staining using the Annexin V-APC Apoptosis Detection Kit (KeyGEN BioTECH, China) according to the manufacturer’s guide. […] The samples were analyzed by flow cytometry (Becton Dickinson, NJ, USA), and results were analyzed with FlowJo software according to the manufacturer’s instructions. […]

H1299 cells [3] = experiment: Time-lapse cell-tracking, H1299 cells; settings: HoloMonitor M4, vs Scr
Description: as §1, §2

Substance	migratory and invasive capabilities (transwell) (H1299 cells [1])	level of Nt-ac-H4 (histone H4)	migration in wound healing assay (H1299 cells [2])	random motility (H1299 cells [3])	level of H4R3me2a (histone H4)	level of H4R3me2s (histone H4)	level of H4S1ph (histone H4)	levels of H4K5ac, H4K8ac, or H4K12ac (histone H4)	level of Nt-ac-H4 (histone H4; listed as NatD knockdown)
NatD-KD1: Human NatD shRNA KD1: 5′-GATGAAGAAGGTTATGTTA-3′, lentiviral (shRNA, lentiviral)	significantly reduced	significantly reduced	migrated significantly more slowly	lower random motility	–	–	–	–	–
NatD-KD2: Human NatD shRNA KD2: 5′-GGTTGAATGTCTCCATTGA-3′, lentiviral (shRNA lentiviral)	significantly reduced	significantly reduced	migrated significantly more slowly	lower random motility	slightly increased	slightly decreased	significantly increased	No significant change	greatly decreased
